From US20250170103A1, “4-(6-OXO-2-(TRIFLUOROMETHYL)-3,6-DIHYDROCHROMENO[7,8-D]IMIDAZOL-8-YL)BENZONITRILE FOR USE IN THE TREATMENT OF DISEASES AND CONDITIONS ASSOCIATED WITH MOVEMENT DISORDERS” (OnTrack Therapeutics Limited, priority 2022, published 2025)

B1: BDNF: classical neurotrophic factor, used as an endogenous activator of the signalling pathway under investigation (protein, UniProt P23560 19-247, looked up)
Neurotrophic factor BDNF …: APMKEANIRGQGGLAYPGVRTHGTLESVNGPKAGSRGLTSLADTFEHVIEELLDEDQKVRPNEENNKDADLYTSRVMLSSQVPLEPPLLFLLEEYKNYLDAANMSMRVRRHSDPARRGELSVCDSISEWVTAADKKTAVDMSGGTVTVLEKVPVSKGQLKQYFYETKCNPMGYTKEGCRGIDKRHWNSQCRTTQSYVRALTMDSKKRIGWRFIRIDTSCVCTLTIKRGR

Experiments:
[1] = tested on: dopaminergic TH-positive neurons injured with MPP+; assay: MPP+ in vitro Parkinson's disease model, TH/αSyn plate at 48 hours (α-syn, DA neurons, neurites); format: cell-based, rat; conditions: MPP+ 4 μM
Description: (§1) The ventral portion of the mesencephalic flexure, a region of the developing brain rich in dopaminergic neurons, was used for the cell preparations.
(§2) (solution at a final concentration of 0.05% trypsin and 0.02% EDTA). […] Cells were then mechanically dissociated by 3 passages through a 10 ml pipette. Cells were then centrifuged at 180×g for 10 min at +4° C. on a layer of BSA (3.5%) in L15 medium. […] Viable cells were counted in a Neubauer cytometer using the trypan blue exclusion test. […] Half of the medium was changed every 2 days with fresh medium.
The cells were washed twice in PBS, and then permeabilized.

5XFAD mice = conditions: repeated administration, WO2020/033604; cited from earlier work
[2] = tested on: dopaminergic TH-positive neurons injured with MPP+; assay: MPP+ in vitro Parkinson's disease model, mitochondrial ROS in TH neurons at 4 hours (TH/ROS plate); format: cell-based, rat; conditions: CF3CN 10 nm to 1 μm, 1 h pre-incubation, MPP+ 4 μM, FIG. 1
Description: as §1, §2

[3] = tested on: primary SOD1 transgenic spinal cord motor neurons injured with glutamate; assay: In vitro ALS model: glutamate-injured primary spinal motor neurons (MAP2/TDP43, 24 hours); format: cell-based, rat; conditions: for number of motor neurons: FIG. 5
Description: Cells were mechanically dissociated by three forced passages through the tip of a 10-ml pipette. Cells were then centrifuged at 515×g for 10 min at 4° C. […] Viable cells were counted in a Neubauer cytometer, using the trypan blue exclusion test. […] The medium was changed every 2 days.

Molecule	level of neurites ([1]; CF3CN 1 nm to 1 μm, FIG. 4)	number of DA neurons ([1]; CF3CN 10 and 100 nm, FIG. 3)	level of α-syn ([1]; all dose levels (1 nM to 5 μM) except 10 μm, FIG. 2)	synaptic loss (5XFAD mice)	reduction of mitochondrial stress (ROS in TH(+) neurons) [2]	neurite network ([3]; CF3CN 10 and 100 nm, glutamate 5 μM 20 min, 24 hours, compared to the control, FIG. 6)	level of extranuclear TDP-43 versus the positive controls ([3]; CF3CN 10 nm and 100 nm, compared with Riluzole 5 μM and BDNF 50 ng/ml)	number of motor neurons ([3]; CF3CN 10 nm, 100 nm and 1 μm, glutamate 5 μM 20 min, 24 hours, compared to the control)	number of extranuclear TDP-43 ([3]; CF3CN all concentrations except the highest and the lowest (10 nM to 5 μM), glutamate 5 μM 20 min, 24 hours, FIG. 7)	number of motor neurons ([3]; positive controls: Riluzole 5 μM, BDNF 50 ng/ml, glutamate 5 μM 20 min, 24 hours, compared to the control)
N#Cc1ccc(-c2cc(=O)c3ccc4[nH]c(C(F)(F)F)nc4c3o2)cc1 [CF3CN, 4-(6-oxo-2-(trifluoromethyl)-3,6-dihydrochromeno[7,8-d]imidazol-8-yl)benzonitrile]	increase the level of neurites	increase the number of DA neurons	statistically significantly reduce the level of α-syn	prevent synaptic loss	statistically significantly reduced ROS	increased the neurite network in a statistically significant manner	greater decrease in the level of extranuclear TDP-43 than the positive controls	statistically significant increase in the number of motor neurons	decreased the number of extranuclear TDP-43 in a statistically significant manner	–
B1	–	–	–	–	–	–	–	–	–	statistically significant increase in the number of motor neurons
